# Measured values as given in patent publication US20240390295A1, “METHODS FOR TREATING DEPRESSION” (JANSSEN PHARMACEUTICA NV, priority 2020, published 2024).
# Columns and labels:
# [1] = test system: adult patients (aged 18-64 years) with TRD; test: Measure-based increased blood pressure (abnormal elevation in BP); format: in vivo, human
# Experimental: Vital signs, the Clinician-Administered Dissociative States Scale (CADSS), and the Modified Observer's Assessment of Alertness/Sedation (MOAA/S) were assessed at baseline and all treatment sessions (predose, and at 40 minutes, 1 hour [vital signs only unless spontaneously reported by the patient], and 1.5 hours postdose). Routine blood pressure (BP) readings were conducted at each treatment session, with elevations reported as AEs based on the clinician's judgement. The CADSS assessed treatment-emergent dissociative symptoms and consists of 23 questions, each coded on a 5-point scale (0=not at all, 1-mild, 2-moderate, 3=severe, 4-extreme), yielding a total score 0-92.11 A CADSS total score >4 indicated the presence of dissociative symptoms. The MOAA/S assessed treatment-emergent sedation: scores range from (=no response to painful stimulus to 5=readily responds to name spoken in normal tone. Any decrease in MOAA/s from pre-dose (score <5) indicated some degree of sedation. An abnormal elevation in BP was defined as systolic BP ≥180 mmHg and ≥20 mmHg higher than baseline and/or diastolic BP ≥105 mmHg and ≥15 mmHg greater than baseline.
# (§1) This analysis included any treatment sessions in which patients received ESK (either open-label or blinded). The occurrence and severity of AEs were assessed within the following timeframes: Month 1 (Week 1 and Weeks 2-4), Month 2 (Weeks 5-8), Months 3-6 and Months 6-12. Severity of clinician-reported AEs were scored as 0 (no AE), 1 (mild), 2 (moderate), and 3 (severe). To examine AEs in individual patients over time, only patients who received at least one ESK dose in the following period were included in the analyses of each respective period. Thus, patient data were retained in (i) Week 1 if the patient received ≥1 ESK dose in Weeks 2-4, (ii) Weeks 2-4 if the patient received ≥1 ESK dose in Weeks 5-8, (iii) Weeks 5-8 if the patient received ≥1 ESK dose in Months 3-6, and (iv) Months 3-6 if the patient received ≥1 ESK dose in Months 6-12.
# [2] = test system: adult patients (aged 18-64 years) with TRD; test: Severity of recurrent clinician-reported AEs (0 no AE, 1 mild, 2 moderate, 3 severe); format: in vivo, human
# Experimental: Patients were monitored for >90 minutes after ESK administration at each treatment session, after which time they could leave the clinical site at the clinician's discretion. AEs were monitored and reported, and safety assessments, including clinical laboratory tests and physical examinations, were conducted throughout the study. Clinician-reported AEs were categorized as mild, moderate, or severe based on clinical judgement (Table 1).
# as §1
# Week 1 and Week 4 were set a priori as index weeks because they are the beginning and end of the induction period. Frequencies and maximum-reported severities of AEs reported during these index weeks served as stratifying variables by which to examine recurrence and severities of AE recurrences in future timeframes.
smiles,measurement,setting,value
"CN[C@]1(c2ccccc2Cl)CCCCC1=O [esketamine, (S)-2-(2-chlorophenyl)-2-(methylamino)cyclohexanone]",Measured-based increased blood pressure,"[1]; Months 3-6, AE once in Week 1",6.3%
same,Measured-based increased blood pressure,"[1]; Months 3-6, AE twice in Week 1",33.3%
same,Measured-based increased blood pressure,"[1]; Months 3-6, No AE in Week 1",2.4%
same,Measured-based increased blood pressure,"[1]; Months 3-6, overall rate for timeframe",2.7%
same,Measured-based increased blood pressure,"[1]; Months 6-12, AE once in Week 1",6.3%
same,Measured-based increased blood pressure,"[1]; Months 6-12, AE twice in Week 1",0%
same,Measured-based increased blood pressure,"[1]; Months 6-12, No AE in Week 1",3.1%
same,Measured-based increased blood pressure,"[1]; Months 6-12, overall rate for timeframe",3.2%
same,Measured-based increased blood pressure,"[1]; Week 1, overall rate for timeframe",3.6%
same,Measured-based increased blood pressure,"[1]; Weeks 2-4, AE once in Week 1",35.7%
same,Measured-based increased blood pressure,"[1]; Weeks 2-4, AE twice in Week 1",80.0%
same,Measured-based increased blood pressure,"[1]; Weeks 2-4, No AE in Week 1",3.4%
same,Measured-based increased blood pressure,"[1]; Weeks 2-4, overall rate for timeframe",4.7%
same,Measured-based increased blood pressure,"[1]; Weeks 5-8, AE once in Week 1",17.9%
same,Measured-based increased blood pressure,"[1]; Weeks 5-8, AE twice in Week 1",60.0%
same,Measured-based increased blood pressure,"[1]; Weeks 5-8, No AE in Week 1",2.6%
same,Measured-based increased blood pressure,"[1]; Weeks 5-8, overall rate for timeframe",3.4%
same,clinician-reported dissociation mean recurrence severity score,"[2]; AE moderate in Week 1, Months 3-6",1.4
same,clinician-reported dissociation mean recurrence severity score,"[2]; AE moderate in Week 1, Months 6-12",1.5
same,clinician-reported dissociation mean recurrence severity score,"[2]; AE moderate in Week 1, Weeks 2-4",1.5
same,clinician-reported dissociation mean recurrence severity score,"[2]; AE moderate in Week 1, Weeks 5-8",1.3
same,clinician-reported dissociation mean recurrence severity score,"[2]; AE severe in Week 1, Months 3-6",1.2
same,clinician-reported dissociation mean recurrence severity score,"[2]; AE severe in Week 1, Months 6-12",1.6
same,clinician-reported dissociation mean recurrence severity score,"[2]; AE severe in Week 1, Weeks 2-4",1.5
same,clinician-reported dissociation mean recurrence severity score,"[2]; AE severe in Week 1, Weeks 5-8",1.8
same,patients with a severe recurrence,"[2]; all clinician-reported AEs except dissociation, any observation period following Week 1 or 4",< 5 patients
same,patients with a moderate recurrence,"[2]; clinician-reported AEs except dissociation, dizziness, vertigo and nausea, any observation period",< 10 patients
same,"reported severity of dissociation, dizziness, nausea, sedation, vertigo, increased blood pressure",[2]; initial incidence and recurrence,mostly mild and rarely severe
same,clinician-reported dissociation mean recurrence severity score,"[2]; no dissociation in Week 1, all timeframes",1.3
same,severity of recurrences,[2]; regardless of highest severity in Weeks 1 or 4,mild to moderate
